In US20180311353A1, “TRIPLET-TRIPLET ANNIHILATION-BASED UPCONVERSION” (Children's Medical Center Corporation, priority 2015, published 2018):

Assays:
[1] = 530 nm LED, 150 mW cm^−2
Description: This example illustrates cell binding triggered by TTA-UC. Photo-triggered binding of NPTTA-c[R]GDfK to cells by flow cytometry and confocal microscopy, was studied with micelles in which a hydrophilic dye, Lissamine™ rhodamine B (LRB), was covalently bound to the PLA-PEG copolymer (forming PLA-PEG-LRB; FIG. 16).

[2] = Photocleavage of DEACM from NPTTA-c[R]GDfK (530 nm LED, centrifugal filtrate); type: physicochemical; details: HPLC of filtrate
Procedure: Photocleavage of DEACM from NPTTA-c[R]GDfK. One milliliter of NPTTA-c[R]GDfK solution (1 mg mL^−1) was put in a quartz cuvette and irradiated with LED light (530 nm, 150 mW cm^−2). At each irradiation time, the solution was put in an Amicon® Ultra centrifugal filter (50,000 Da cut-off) and centrifuged at 4000 rmp for 15 min. […]
Photocleavage of DEACM from NPTTA-c[R]GDfK. […] At each irradiation time, the solution was transferred into an Amicon® Ultra centrifugal filter (MWCO: 50,000 Da) and centrifuged at 4000 rmp for 15 min. […]

[3] = Photocleavage of c[R]GDfK molecule (400 nm LED, HPLC); type: physicochemical; details: PBS
Procedure: Construction of photo-targeted polymeric micelles. […] The identity of the peaks was further confirmed by mass spectrometry. Approximately 86% of cleavage occurred within 30 s of irradiation at 50 mW cm^−2 (FIG. 2C). At an irradiance as low as 2.3 mW cm^−2, ˜42% of c[R]GDfK was cleaved after 2 min of irradiation.
FIG. 2A. Photocleavage of c[R]GDfK. […] FIG. 2B. UV-visible absorption and fluorescence emission spectra of c[R]GDfK in PBS (pH 7.4). The excitation wavelength for the fluorescence spectrum was 385 nm. FIG. 2C. Photocleavage rate of c[R]GDfK in PBS, as determined by HPLC (detected at 390 nm), after continuous irradiation with 400 nm LED light at 2.3 mW cm^−2 and 50 mW cm^−2 (data are mean+/−SD; n=4). a.u.=arbitrary units. […]
Photocleavage of c[R]GDfK molecule. A disposable macro fluorescence cuvette containing 400 microliters of c[R]GDfK PBS solution (50 microgram/mL) was irradiated under an 11-mm LED (400 nm) collimator with a Multi-channel Universal LED controller (Mightex Systems, CA, USA). […] The LED irradiance was measured with a PM100USB Power and Energy Meter (ThorLabs, NJ, USA). At each irradiation time point, 50 microliters of the irradiated solution was analyzed by reverse-phase high-performance liquid chromatography (RP-HPLC) with an Agilent 1260 Infinity LC system and a Poroshell 120 EC-C18 column (4.6×100 mm) (Agilent Technologies, CA, USA). […]

Compound	photostable under irradiation, time [1]	photocleavage of DEACM on 530 nm irradiation [2]	c[R]GDfK cleaved ([3]; 2.3 mW cm^−2, after 2 min)	cleavage of c[R]GDfK ([3]; 50 mW cm^−2, within 30 s, 50 microgram/mL)
CCN(CC)c1ccc2c(-c3ccc(S(=O)(=O)NCCN)cc3S(=O)(=O)O)c3ccc(=[N+](CC)CC)cc-3oc2c1.O=C(O)C(F)(F)F [LRB, Lissamine™ rhodamine B ethylenediamine]	at least 10 min	–	–	–
c[R]GDfK	–	did not cleave DEACM from c[R]GDfK	~42%	Approximately 86%
